Values after ≈ are worked out from the molar mass of the structure shown.
What was measured:
Assay type in all cases: functional
[1] = test system: Mycobacterium tuberculosis; test: Antimycobacterial activity against multidrug-resistant Mycobacterium tuberculosis 411 after 5 to 7 days by microplate alamar blue assay
[2] = test system: Mycobacterium tuberculosis; test: Antimycobacterial activity against streptomycin, rifampicin, pyrazinamide-sensitive isoniazid, ethambutol-resistant Mycobacterium tuberculosis 363 after 5 to 7 days by microplate alamar blue assay
[3] = test system: Mycobacterium tuberculosis; test: Antimycobacterial activity against multidrug-resistant Mycobacterium tuberculosis 332 after 5 to 7 days by microplate alamar blue assay
[4] = test system: Mycobacterium tuberculosis; test: Antimycobacterial activity against multidrug-resistant, ethambutol-sensitive Mycobacterium tuberculosis 401 after 5 to 7 days by microplate alamar blue assay
[5] = test system: Mycobacterium tuberculosis; test: Antimycobacterial activity against multidrug-resistant, ethambutol-sensitive Mycobacterium tuberculosis 494 after 5 to 7 days by microplate alamar blue assay
[6] = test system: Mycobacterium tuberculosis; test: Antimycobacterial activity against multidrug-resistant, pyrazinamide-sensitive Mycobacterium tuberculosis 366 after 5 to 7 days by microplate alamar blue assay
[7] = test system: Mycobacterium tuberculosis; test: Antimycobacterial activity against multidrug-resistant Mycobacterium tuberculosis 160 after 5 to 7 days by microplate alamar blue assay
[8] = test system: Mycobacterium tuberculosis; test: Antimycobacterial activity against multidrug-resistant Mycobacterium tuberculosis 331 after 5 to 7 days by microplate alamar blue assay
[9] = test system: Mycobacterium tuberculosis; test: Antimycobacterial activity against multidrug-resistant Mycobacterium tuberculosis 528 after 5 to 7 days by microplate alamar blue assay
[10] = test system: Mycobacterium tuberculosis; test: Antimycobacterial activity against multidrug-resistant Mycobacterium tuberculosis 535 after 5 to 7 days by microplate alamar blue assay
[11] = test system: Mycobacterium tuberculosis; test: Antimycobacterial activity against multidrug-resistant, streptomycin-sensitive Mycobacterium tuberculosis 429 after 5 to 7 days by microplate alamar blue assay

CCCCCCCCCCCCCCC(N)COCc1ccccc1 (stereo not drawn)
MIC [1]: 4.5 µM (≈ 1.56 µg/mL) | MIC [2]: 18 µM (≈ 6.26 µg/mL) | MIC [3]: 36 µM (≈ 12.5 µg/mL) | MIC [4]: 4.5 µM (≈ 1.56 µg/mL) | MIC [5]: 9 µM (≈ 3.13 µg/mL) | MIC [6]: 4.5 µM (≈ 1.56 µg/mL) | MIC [7]: 9 µM (≈ 3.13 µg/mL) | MIC [8]: 9 µM (≈ 3.13 µg/mL) | MIC [9]: 18 µM (≈ 6.26 µg/mL) | MIC [10]: 18 µM (≈ 6.26 µg/mL) | MIC [11]: 9 µM (≈ 3.13 µg/mL)

CCCCCCCCCCCCCCC(COCc1ccccc1)N(CC)CC (stereo not drawn)
MIC [1]: 7.7 µM (≈ 3.11 µg/mL) | MIC [2]: 3.9 µM (≈ 1.57 µg/mL) | MIC [3]: 1.9 µM (≈ 0.767 µg/mL) | MIC [4]: 7.7 µM (≈ 3.11 µg/mL) | MIC [5]: 7.7 µM (≈ 3.11 µg/mL) | MIC [6]: 3.9 µM (≈ 1.57 µg/mL) | MIC [7]: 7.7 µM (≈ 3.11 µg/mL) | MIC [8]: 15.5 µM (≈ 6.26 µg/mL) | MIC [9]: 15.5 µM (≈ 6.26 µg/mL) | MIC [10]: 3.9 µM (≈ 1.57 µg/mL) | MIC [11]: 7.7 µM (≈ 3.11 µg/mL)

CCCCCCCCCCCCCCC(N)CN(CC)CC (stereo not drawn)
MIC [1]: 40 µM (≈ 12.5 µg/mL) | MIC [2]: 40 µM (≈ 12.5 µg/mL) | MIC [3]: 40 µM (≈ 12.5 µg/mL) | MIC [4]: 40 µM (≈ 12.5 µg/mL) | MIC [5]: 40 µM (≈ 12.5 µg/mL) | MIC [6]: 20 µM (≈ 6.25 µg/mL) | MIC [7]: 40 µM (≈ 12.5 µg/mL) | MIC [8]: 40 µM (≈ 12.5 µg/mL) | MIC [9]: 40 µM (≈ 12.5 µg/mL) | MIC [10]: 40 µM (≈ 12.5 µg/mL) | MIC [11]: 40 µM (≈ 12.5 µg/mL)
